Entries after “also recorded” stand apart in the source; their conditions may differ.
Test system: IGF-I
Assay: Serum total IGF-I levels (Immulite 2000) in the 2-year placebo-controlled trial
Type: in vivo, human
Conditions: for IGF-I levels after withdrawal of MK-677 or switch to placebo: after crossover to placebo in year 2 or 3 and 6 months after withdrawal
Method: Sixty-five healthy men and women (±HRT) ages 60-81 years were enrolled in a 2-year study of MK-677 (25 mg p.o. daily) or placebo. In addition to GH and IGF-I, the primary endpoints were fat-free mass (FFM), by 4-compartment model and DXA, and abdominal visceral fat (AVF) by CT. Secondary endpoints included isokinetic strength, function and quality of life (QoL); all endpoints were assessed at baseline and every 6 months, with frequent monitoring for adverse effects. This NIH-funded study was approved by the General Clinical Research Center (GCRC) and the University of Virginia Institutional Review Boards. All subjects gave written informed consent. A two-year, double-blind, placebo-controlled modified crossover trial of once-daily administration of an oral GH secretogogue (MK-677, 25 mg) to healthy older adults was performed. During the first year, subjects were randomized to MK-677 or placebo treatment. In each of 3 groups (23 men, 25 women on hormone replacement therapy (HRT) and 17 women not on HRT), ⅔ received MK-677 and ⅓ received placebo. At the end of year 1, the subjects who received placebo were switched to MK-677 treatment (N= 2/0 in year 2); subjects who received MK-677 for the first year were randomized to continue MK-677 (N=20) or to placebo (N=19). Assays and Insulin Sensitivity. Plasma glucose was measured on a Beckman analyzer and insulin and total IGF-I were measured in the GCRC Core Laboratory on an Immulite 2000 (Diagnostic Products Corporation, Los Angeles, Calif.). Additional safety laboratory tests were performed by standard methods in the UVA Clinical Laboratories. Fasting insulin and glucose were used to estimate insulin sensitivity by the Quicki method (4). The primary outcome data for the 6- and 12-month changes in FFM and AVF as well as for IGF-I and GH were analyzed via repeated measures ANCOVA. The FFM and AVF data were analyzed on the same scale as they were measured, while the IGF-I and GH data were transformed to the natural logarithmic scale before conducting the statistical analyses so that the variance and normality assumptions of the linear model were not violated. Since the FFM and AVF data were analyzed on the same scale as initially measured, the 6- and 12-month changes are reported as a difference between arithmetic means; changes in IGF-I and GH data analyzed on the natural algorithmic scale are reported as a ratio of geometric means.

CC(C)(N)C(=O)N[C@H](COCc1ccccc1)C(=O)N1CCC2(CC1)CN(S(C)(=O)=O)c1ccccc12.CS(=O)(=O)O [MK-677, N-[1(R)-[(1,2-dihydro-1-methanesulfonylspiro[3H-indole-3,4′-piperidin]-1′-yl)carbonyl]-2-(phenylmethyloxy)ethyl]-2-amino-2-methylpropanamide methanesulfonate]
IGF-I levels after withdrawal of MK-677 or switch to placebo (listed as Mk-677, methanesulfonate): fell to baseline levels | IGF-I levels after withdrawal of MK-677 or switch to placebo (methanesulfonate): returned to pre-treatment levels | fold increase in IGF-I levels (at 6 and 12 months, 25 mg p.o. daily, N=43): 1.5 fold | IGF-I levels relative to normal range for young adults aged 21-25 (116-358 μg/L) (first year, 25 mg p.o. daily, methanesulfonate): levels in the young adult normal range; also recorded: increased into the normal range for young adults
